Several values for one entry are separate records, joined by “and”; a condition that tells them apart may be missing. Equal entries are not always repeated. Toxic doses and inconclusive results are not listed. No stated cut-off is given here; in the data, active means T/C of 150% or more; inactive means T/C below 125%.
System: L1210 leukemia ip in BDF1 mice, survival T/C
Experiment: NCI In Vivo Anticancer Drug Screen. Data for tumor model L1210 Leukemia (intraperitoneal) in B6D2F1 (BDF1) mice
Details: endpoint: mean survival time, higher = longer survival
How it was run: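 Read-out is survival time, reported as the treated-group measurement over the vehicle-control measurement.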

[1] = dose: 100.0 mg/kg/injection, schedule: Q01DX001 (ip), vehicle: saline
[2] = dose: 200.0 mg/kg/injection, schedule: Q01DX001 (ip), vehicle: saline
[3] = dose: 400.0 mg/kg/injection, schedule: Q01DX001 (ip), vehicle: saline
[4] = dose: 100.0 mg/kg/injection, schedule: Q04DX002 (ip), vehicle: Klucel (hydroxypropylcellulose) (HPC)
[5] = dose: 200.0 mg/kg/injection, schedule: Q04DX002 (ip), vehicle: Klucel (hydroxypropylcellulose) (HPC)
[6] = dose: 400.0 mg/kg/injection, schedule: Q04DX002 (ip), vehicle: Klucel (hydroxypropylcellulose) (HPC)
[7] = dose: 100.0 mg/kg/injection, schedule: Q04DX003 (ip), vehicle: Klucel (hydroxypropylcellulose) (HPC)
[8] = dose: 200.0 mg/kg/injection, schedule: Q04DX003 (ip), vehicle: Klucel (hydroxypropylcellulose) (HPC)
[9] = dose: 400.0 mg/kg/injection, schedule: Q04DX003 (ip), vehicle: Klucel (hydroxypropylcellulose) (HPC)
[10] = dose: 100.0 mg/kg/injection, schedule: Q04DX003 (ip), vehicle: saline with Tween-80
[11] = dose: 200.0 mg/kg/injection, schedule: Q04DX003 (ip), vehicle: saline with Tween-80
[12] = dose: 400.0 mg/kg/injection, schedule: Q04DX003 (ip), vehicle: saline with Tween-80
[13] = dose: 100.0 mg/kg/injection, schedule: Q01DX009 (ip), vehicle: acetone
[14] = dose: 200.0 mg/kg/injection, schedule: Q01DX009 (ip), vehicle: acetone

Measured: T/C

CC(=O)Nc1ccc2c(c1)C(c1ccccc1)=NCC(=O)N2
inactive: [1] 103 % of control | dose: 100.0 mg/kg/injection, schedule: Q01DX Z (ip), vehicle: carboxymethylcellulose (CMC) 107 % of control | dose: 100.0 mg/kg/injection, schedule: Q01DX Z (ip), vehicle: methylcellulose (MC) 100 % of control | dose: 150.0 mg/kg/injection, schedule: Q01DX Z (ip), vehicle: carboxymethylcellulose (CMC) 112 % of control and 114 % of control | dose: 150.0 mg/kg/injection, schedule: Q01DX Z (ip), vehicle: methylcellulose (MC) 103 % of control | [2] 103 % of control | dose: 225.0 mg/kg/injection, schedule: Q01DX Z (ip), vehicle: carboxymethylcellulose (CMC) 100 % of control | dose: 225.0 mg/kg/injection, schedule: Q01DX Z (ip), vehicle: methylcellulose (MC) 107 % of control | dose: 337.0 mg/kg/injection, schedule: Q01DX Z (ip), vehicle: carboxymethylcellulose (CMC) 97 % of control | dose: 337.0 mg/kg/injection, schedule: Q01DX Z (ip), vehicle: methylcellulose (MC) 109 % of control | [3] 91 % of control | dose: 600.0 mg/kg/injection, schedule: Q01DX001 (ip), vehicle: saline 98 % of control | dose: 1200.0 mg/kg/injection, schedule: Q01DX001 (ip), vehicle: saline 120 % of control | dose: 2400.0 mg/kg/injection, schedule: Q01DX001 (ip), vehicle: saline 120 % of control

Cc1cc(NC(=O)Nc2cccc3ccccc23)no1
inactive: dose: 100.0 mg/kg/injection, schedule: Q01DX009 (ip), vehicle: Klucel (hydroxypropylcellulose) (HPC) 104 % of control | [4] 89 % of control | dose: 200.0 mg/kg/injection, schedule: Q01DX009 (ip), vehicle: Klucel (hydroxypropylcellulose) (HPC) 98 % of control | [5] 102 % of control | dose: 400.0 mg/kg/injection, schedule: Q01DX009 (ip), vehicle: Klucel (hydroxypropylcellulose) (HPC) 98 % of control | [6] 89 % of control

CSc1nc(Cl)nc(SC)n1
inactive: [7] 96 % of control | [8] 96 % of control | [9] 96 % of control

S=C1SCC(c2ccccc2)S1 (centres undefined)
inactive: [10] 92 % of control | [11] 92 % of control | [12] 89 % of control

Nc1cc2c(cc1Br)-c1ccc([N+](=O)[O-])cc1/C2=N\O
inactive: dose: 100.0 mg/kg/injection, schedule: Q01DX001 (ip), vehicle: carboxymethylcellulose (CMC) 113 % of control | dose: 200.0 mg/kg/injection, schedule: Q01DX001 (ip), vehicle: carboxymethylcellulose (CMC) 103 % of control | dose: 400.0 mg/kg/injection, schedule: Q01DX001 (ip), vehicle: carboxymethylcellulose (CMC) 97 % of control

CCCCCCCCCCCCCCCC(=O)Nc1ccc(O)cc1
inactive: [1] 110 % of control | [7] 97 % of control | [2] 110 % of control | [8] 102 % of control | [3] 108 % of control | [9] 95 % of control

O=C(O)CC12CCCCC1CCCC2 (centres undefined)
inactive: [13] 94 % of control | [14] 100 % of control | dose: 400.0 mg/kg/injection, schedule: Q01DX009 (ip), vehicle: acetone 94 % of control

COc1cc(NC(N)=O)cc(OC)c1OC
inactive: dose: 100.0 mg/kg/injection, schedule: Q01DX009 (ip), vehicle: saline sonified 101 % of control | [7] 99 % of control | dose: 200.0 mg/kg/injection, schedule: Q01DX009 (ip), vehicle: saline sonified 95 % of control | [8] 94 % of control | dose: 400.0 mg/kg/injection, schedule: Q01DX009 (ip), vehicle: saline sonified 101 % of control | [9] 99 % of control

CC1(CO)COCOC1
inactive: dose: 50.0 mg/kg/injection, schedule: Q01DX009 (ip), vehicle: acetone 104 % of control | [13] 108 % of control | dose: 100.0 mg/kg/injection, schedule: Q04DX003 (ip), vehicle: acetone 95 % of control | [14] 104 % of control | dose: 200.0 mg/kg/injection, schedule: Q04DX003 (ip), vehicle: acetone 105 % of control | dose: 400.0 mg/kg/injection, schedule: Q04DX003 (ip), vehicle: acetone 97 % of control

O=c1c2ccccc2c2ccccc2n1-c1ccccc1
inactive: dose: 100.0 mg/kg/injection, schedule: Q01DX001 (ip), vehicle: Klucel (hydroxypropylcellulose) (HPC) 97 % of control | dose: 200.0 mg/kg/injection, schedule: Q01DX001 (ip), vehicle: Klucel (hydroxypropylcellulose) (HPC) 94 % of control | dose: 400.0 mg/kg/injection, schedule: Q01DX001 (ip), vehicle: Klucel (hydroxypropylcellulose) (HPC) 91 % of control

O=C(CCl)Nc1ncn[nH]1
inactive: dose: 75.0 mg/kg/injection, schedule: Q01DX001 (ip), vehicle: carboxymethylcellulose (CMC) 101 % of control | dose: 150.0 mg/kg/injection, schedule: Q01DX001 (ip), vehicle: carboxymethylcellulose (CMC) 97 % of control | dose: 300.0 mg/kg/injection, schedule: Q01DX001 (ip), vehicle: carboxymethylcellulose (CMC) 107 % of control

COc1ccc(NC(=O)NCc2cccc(Cl)c2)cc1
inactive: dose: 50.0 mg/kg/injection, schedule: Q04DX002 (ip), vehicle: Klucel (hydroxypropylcellulose) (HPC) 100 % of control | [4] 103 % of control and 107 % of control | [5] 98 % of control | [6] 110 % of control and 92 % of control

CCCCCCCCCCCCCCCCOc1ccc(C(=O)OC)cc1[N+](=O)[O-]
inactive: [10] 94 % of control | [11] 90 % of control | [12] 87 % of control

NC(Cc1cnc(N=Nc2ccc(C(=O)O)cc2)[nH]1)C(=O)O (centres undefined)
inactive: dose: 50.0 mg/kg/injection, schedule: Q01DX009 (ip), vehicle: saline with Tween-80 100 % of control | dose: 100.0 mg/kg/injection, schedule: Q01DX009 (ip), vehicle: saline with Tween-80 95 % of control | dose: 200.0 mg/kg/injection, schedule: Q01DX009 (ip), vehicle: saline with Tween-80 103 % of control

O=C1NC(=S)NC(=O)C1=Cc1ccncc1
inactive: [1] 105 % of control | [2] 102 % of control | [3] 98 % of control

NC(CSCCc1ccc([N+](=O)[O-])cc1)C(=O)O (centres undefined)
inactive: [7] 105 % of control | [8] 96 % of control | [9] 93 % of control

CC1CN=C(c2ccc(NC(=O)Nc3ccc(C4=NCC(C)N4)cc3)cc2)N1 (centres undefined)
inactive: dose: 0.62 mg/kg/injection, schedule: Q01DX Z (ip), vehicle: saline 109 % of control | dose: 1.25 mg/kg/injection, schedule: Q01DX Z (ip), vehicle: saline 114 % of control | dose: 2.5 mg/kg/injection, schedule: Q01DX Z (ip), vehicle: saline 118 % of control | dose: 5.0 mg/kg/injection, schedule: Q01DX Z (ip), vehicle: saline 111 % of control

CCOC(=O)C(CCC#N)(CCC(=O)OC)C(C)=O (centres undefined)
inactive: dose: 100.0 mg/kg/injection, schedule: Q04DX002 (ip), vehicle: saline with Tween-80 97 % of control | dose: 200.0 mg/kg/injection, schedule: Q04DX002 (ip), vehicle: saline with Tween-80 116 % of control | dose: 400.0 mg/kg/injection, schedule: Q04DX002 (ip), vehicle: saline with Tween-80 94 % of control
